Earlier results as cited in article PMC3074188 (Journal of natural products, 2010).

Tested on: HT-29 cell line

## CC(C)C[C@H](NC(=O)[C@H](Cc1ccccc1)NC(=O)c1cnccn1)B(O)O [bortezomib]
  sensitivity of HT-29 cell line (in words): sensitive
